From patent US20210386704A1, “MDMA RESPONSE PREDICTION” (Universitätsspital Basel, priority 2020, published 2021)

Key:
[1] = Pooled analysis of ten placebo-controlled crossover studies: MDMA plasma concentration (AUC 0-6 h)
healthy human subjects [2] = assay: Pooled analysis: autonomic response to MDMA (blood pressure, heart rate, body temperature; Emax)
[3] = poor vs extensive/normal metabolizers; de la Torre et al., 2005; Schmid et al., 2016; cited from earlier work
healthy human subjects [4] = assay: Pooled analysis: subjective response to MDMA (VAS, AMRS, 5D-ASC)

SMILES: CNC(C)Cc1ccc2c(c1)OCO2 (racemic) [MDMA, (±)3,4-methylenedioxymethamphetamine]
- MDMA plasma concentration, relation to genetically determined CYP2D6 activity ([1]; adjusted for dose per body weight (FIG. 2), p<0.01): still inversely correlated with the MDMA plasma concentration
- MDMA concentrations and response in subjects with poor CYP2D6 activity ([1]; poor vs extensive CYP2D6 metabolizers (FIGS. 1 and 2)): higher MDMA concentrations and a stronger MDMA response compared with CYP2D6 extensive metabolizers
- MDMA plasma AUC over 6 hours, women vs men ([1]; similar total doses, not accounting for body weight): women exhibit significantly higher MDMA plasma AUC than men
- Heart rate increase, relation to older age (healthy human subjects [2]; LASSO model (FIG. 3)): lower heart rate increase
- Temperature increase, relation to older age (healthy human subjects [2]; LASSO model (FIG. 3)): lower temperature increase
- Heart rate, correlation with age (healthy human subjects [2]; adjusted for dose per body weight (FIG. 2), p<0.05): inverse correlation between heart rate and age remained significant
- MDMA blood plasma concentrations in CYP2D6 poor metabolizers [3]: higher MDMA blood plasma concentrations than extensive/normal metabolizers
- Bad drug effect, relation to older age (healthy human subjects [4]; LASSO model (FIG. 3)): higher bad drug effect
- Strongest predictor of outcome effects after MDMA (plasma AUC, MAP increase, AMRS, VAS, 5D-ASC ratings) (healthy human subjects [4]; LASSO model (FIG. 3)): dose per body weight is the strongest predictor
- Sex as predictor of response (healthy human subjects [4]; adjusted for dose and body weight (FIG. 2)): lost its predictor value
- Effect of well-being (AMRS) before MDMA on response (healthy human subjects [4]; dose-adjusted (FIG. 2)): no significant effect as predictor variable on the response to MDMA
- Dread of ego dissolution and impaired control and cognition (5D-ASC) in subjects with higher neuroticism (NEO-FFI) and trait anxiety (STAI-T) (healthy human subjects [4]; dose-adjusted (FIG. 2), both p<0.01 and both p<0.05): more likely to experience “dread of ego dissolution” and “impaired control and cognition”
- Closeness (VAS), oceanic boundlessness and visionary restructuralization (5D-ASC), relation to openness to experience (NEO-FFI) (healthy human subjects [4]; dose-adjusted (FIG. 2), p<0.05, p<0.05, p<0.01): positively correlated
- Effect of past use of MDMA on response (healthy human subjects [4]; past use within the range of 0-5 times (FIG. 2 and FIG. 3)): no significant effect on the response to MDMA
- Good drug effect / positive effects, relation to dose (healthy human subjects [4]; within range of doses tested (75 and 125 mg)): a high dose of MDMA (>75 mg) is needed to produce greater positive effects
- Intensity of response at high dose of MDMA per body weight (healthy human subjects [4]; within the 75-125 mg absolute dose range (FIG. 1)): more intense response to MDMA with more positive and more cardiostimulant effects
